Reference: PubChem BioAssay (NCI)
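Protocol summary: plate cells (96-well), add compound at 5 concentrations, incubate 48 h, interpolate endpoints linearly. GI50 is the concentration that inhibits growth by half. Definition used: TGI = concentration required for complete inhibition of growth.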

Legend:
Assay in all cases: NCI-60 cell line screen, 48 h
SW-620 colon = system: SW-620 colon
OVCAR-3 ovarian = system: OVCAR-3 ovarian
SK-MEL-28 melanoma = system: SK-MEL-28 melanoma
SNB-75 CNS = system: SNB-75 CNS
MOLT-4 leukemia = system: MOLT-4 leukemia
NCI-H460 lung = system: NCI-H460 lung
A549 NSCLC = system: A549 NSCLC
MCF7 breast = system: MCF7 breast
786-0 renal = system: 786-0 renal
OVCAR-4 ovarian = system: OVCAR-4 ovarian
CCRF-CEM leukemia = system: CCRF-CEM leukemia
NCI-H23 lung = system: NCI-H23 lung
MDA-MB-231 breast = system: MDA-MB-231 breast
COLO 205 colon = system: COLO 205 colon
RPMI-8226 leukemia = system: RPMI-8226 leukemia
MDA-MB-435 = system: MDA-MB-435
NCI-H522 lung = system: NCI-H522 lung
M14 melanoma = system: M14 melanoma
OVCAR-8 ovarian = system: OVCAR-8 ovarian
EKVX NSCLC = system: EKVX NSCLC
UO-31 renal = system: UO-31 renal
NCI-H226 lung = system: NCI-H226 lung
MALME-3M melanoma = system: MALME-3M melanoma
SN12C renal = system: SN12C renal
HT29 colon = system: HT29 colon
SF-268 CNS = system: SF-268 CNS
T-47D breast = system: T-47D breast
SNB-19 CNS = system: SNB-19 CNS
SK-OV-3 ovarian = system: SK-OV-3 ovarian
TK-10 renal = system: TK-10 renal
A498 renal = system: A498 renal
DU-145 prostate = system: DU-145 prostate
HOP-92 NSCLC = system: HOP-92 NSCLC
HL-60(TB) leukemia = system: HL-60(TB) leukemia
CAKI-1 renal = system: CAKI-1 renal
HS 578T breast = system: HS 578T breast
SK-MEL-2 melanoma = system: SK-MEL-2 melanoma
HCC-2998 colon = system: HCC-2998 colon
HOP-62 NSCLC = system: HOP-62 NSCLC
PC-3 prostate = system: PC-3 prostate
UACC-257 melanoma = system: UACC-257 melanoma
KM12 colon = system: KM12 colon
NCI/ADR-RES ovarian = system: NCI/ADR-RES ovarian
HCT-116 colon = system: HCT-116 colon
U251 CNS = system: U251 CNS
UACC-62 melanoma = system: UACC-62 melanoma
K-562 leukemia = system: K-562 leukemia
SR leukemia = system: SR leukemia
SK-MEL-5 melanoma = system: SK-MEL-5 melanoma
RXF 393 renal = system: RXF 393 renal
SF-295 CNS = system: SF-295 CNS
OVCAR-5 ovarian = system: OVCAR-5 ovarian
BT-549 breast = system: BT-549 breast
SF-539 CNS = system: SF-539 CNS
IGROV1 ovarian = system: IGROV1 ovarian
LOX IMVI melanoma = system: LOX IMVI melanoma
HCT-15 colon = system: HCT-15 colon
ACHN renal = system: ACHN renal

O=C(NNc1nc2cc(F)c(F)cc2n2cccc12)c1ccncn1
GI50 (SW-620 colon): 313 nM
TGI (SW-620 colon): 12200 nM
GI50 (OVCAR-3 ovarian): 301 nM
TGI (OVCAR-3 ovarian): 5160 nM
GI50 (SK-MEL-28 melanoma): 771 nM
TGI (SK-MEL-28 melanoma): 6350 nM
GI50 (SNB-75 CNS): 365 nM
TGI (SNB-75 CNS): 6350 nM
GI50 (MOLT-4 leukemia): 179 nM
TGI (MOLT-4 leukemia): > 30000 nM
GI50 (NCI-H460 lung): 161 nM
TGI (NCI-H460 lung): 9460 nM
GI50 (A549 NSCLC): 275 nM
TGI (A549 NSCLC): 20200 nM
GI50 (MCF7 breast): 235 nM
TGI (MCF7 breast): 3930 nM
GI50 (786-0 renal): 1010 nM
TGI (786-0 renal): 6640 nM
GI50 (OVCAR-4 ovarian): 180 nM
TGI (OVCAR-4 ovarian): 3610 nM
GI50 (CCRF-CEM leukemia): 142 nM
TGI (CCRF-CEM leukemia): > 30000 nM
GI50 (NCI-H23 lung): 1260 nM
TGI (NCI-H23 lung): 11500 nM
GI50 (MDA-MB-231 breast): 839 nM
TGI (MDA-MB-231 breast): 6950 nM
GI50 (COLO 205 colon): 313 nM
TGI (COLO 205 colon): 4060 nM
GI50 (RPMI-8226 leukemia): 571 nM
TGI (RPMI-8226 leukemia): > 20900 nM
GI50 (MDA-MB-435): 1120 nM
TGI (MDA-MB-435): 6960 nM
GI50 (NCI-H522 lung): 803 nM
TGI (NCI-H522 lung): 11600 nM
GI50 (M14 melanoma): 370 nM
TGI (M14 melanoma): 8600 nM
GI50 (OVCAR-8 ovarian): 253 nM
TGI (OVCAR-8 ovarian): 9550 nM
GI50 (EKVX NSCLC): 255 nM
TGI (EKVX NSCLC): 4930 nM
GI50 (UO-31 renal): 140 nM
TGI (UO-31 renal): 4190 nM
GI50 (NCI-H226 lung): 381 nM
TGI (NCI-H226 lung): 5660 nM
GI50 (MALME-3M melanoma): 1500 nM
TGI (MALME-3M melanoma): 6770 nM
GI50 (SN12C renal): 678 nM
TGI (SN12C renal): 9340 nM
GI50 (HT29 colon): 395 nM
TGI (HT29 colon): 15300 nM
GI50 (SF-268 CNS): 408 nM
TGI (SF-268 CNS): 9390 nM
GI50 (T-47D breast): 353 nM
TGI (T-47D breast): 5170 nM
GI50 (SNB-19 CNS): 417 nM
TGI (SNB-19 CNS): 10600 nM
GI50 (SK-OV-3 ovarian): 522 nM
TGI (SK-OV-3 ovarian): 5160 nM
GI50 (TK-10 renal): 547 nM
TGI (TK-10 renal): 5180 nM
GI50 (A498 renal): 1140 nM
TGI (A498 renal): 5620 nM
GI50 (DU-145 prostate): 400 nM
TGI (DU-145 prostate): 18200 nM
GI50 (HOP-92 NSCLC): 697 nM
TGI (HOP-92 NSCLC): 6380 nM
GI50 (HL-60(TB) leukemia): 390 nM
TGI (HL-60(TB) leukemia): > 14800 nM
GI50 (CAKI-1 renal): 286 nM
TGI (CAKI-1 renal): 4220 nM
GI50 (HS 578T breast): 2940 nM
TGI (HS 578T breast): 20400 nM
GI50 (SK-MEL-2 melanoma): 3520 nM
TGI (SK-MEL-2 melanoma): 11500 nM
GI50 (HCC-2998 colon): 452 nM
TGI (HCC-2998 colon): 4550 nM
GI50 (HOP-62 NSCLC): 199 nM
TGI (HOP-62 NSCLC): 6660 nM
GI50 (PC-3 prostate): 309 nM
TGI (PC-3 prostate): > 13400 nM
GI50 (UACC-257 melanoma): 926 nM
TGI (UACC-257 melanoma): 5880 nM
GI50 (KM12 colon): 331 nM
TGI (KM12 colon): 12500 nM
GI50 (NCI/ADR-RES ovarian): 225 nM
TGI (NCI/ADR-RES ovarian): 6330 nM
GI50 (HCT-116 colon): 217 nM
TGI (HCT-116 colon): 5430 nM
GI50 (U251 CNS): 182 nM
TGI (U251 CNS): 7020 nM
GI50 (UACC-62 melanoma): 333 nM
TGI (UACC-62 melanoma): 5140 nM
GI50 (K-562 leukemia): 173 nM
TGI (K-562 leukemia): > 30000 nM
GI50 (SR leukemia): 146 nM
TGI (SR leukemia): > 12300 nM
GI50 (SK-MEL-5 melanoma): 745 nM
TGI (SK-MEL-5 melanoma): 5120 nM
GI50 (RXF 393 renal): 834 nM
TGI (RXF 393 renal): 5160 nM
GI50 (SF-295 CNS): 156 nM
TGI (SF-295 CNS): 3870 nM
GI50 (OVCAR-5 ovarian): 1190 nM
TGI (OVCAR-5 ovarian): 11400 nM
GI50 (BT-549 breast): 1400 nM
TGI (BT-549 breast): 8940 nM
GI50 (SF-539 CNS): 596 nM
TGI (SF-539 CNS): 6300 nM
GI50 (IGROV1 ovarian): 206 nM
TGI (IGROV1 ovarian): 4870 nM
GI50 (LOX IMVI melanoma): 191 nM
TGI (LOX IMVI melanoma): 5110 nM
GI50 (HCT-15 colon): 119 nM
TGI (HCT-15 colon): 5520 nM
GI50 (ACHN renal): 187 nM
TGI (ACHN renal): 3930 nM
